Patent US20060182683A1, “Methods for reduced renal uptake of protein conjugates” (Center for Molecular Medicine and Immunology, priority 1995, published 2006)

Assays:
mice [1] = test: Biodistribution of 99mTc-Fab′ NP-4 under poly-L-lysine of different molecular weight and lysine/poly-lysine mixtures; settings: for Kidney uptake of 99mTc-Fab′ NP-4 / Kidney uptake, % control / Blood level of 99mTc-Fab′ NP-4 / Liver uptake of 99mTc-Fab′ NP-4 / Lungs uptake of 99mTc-Fab′ NP-4 / Spleen uptake of 99mTc-Fab′ NP-4: 4 h p.i.
Method: Female BALB/c mice, 19 to 22 g of weight, 4 to 5 weeks of age (Charles River Laboratories, Boston, Mass.) were used as non-tumor-bearing animals. For a human tumor xenograft model, the human colon carcinoma cell line GW39 (Primus et al supra) was grown subcutaneously in 5- to 6-week-old female athymic mice (Harlan, Madison, Wis.). Animals were injected intravenously into the tail vein with approximately 5-10 μg of antibody fragment protein (i.e., 25-40 μCi of ^99mTc, ^188Re, and ^111In, resp.; 4 μCi of ^88Y, and 10 μCi of ^125I, respectively).
The mice were sacrificed after 4 h and 24 h for ^99mTc-labeled antibodies, and after 4, 24, 72, 96 and 168 h for ^125I, ^111In, ^88Y and ^188Re-labeled antibodies. Mice were sacrificed by anesthesia with sodium pentobarbital and bled by cardiac puncture. After cervical dislocation, the animals were dissected. Radioactivity in the tumors and tissues (liver, spleen, kidney, lung, intestine, blood and bone) was determined by gamma scintillation counting using an injection standard to correct for physical decay.
L-lysine, D-lysine and L-arginine monohydrochloride salts (Sigma, St. Louis, Mo.) were dissolved in phosphate-buffered saline (PBS) at a concentration of 160 mg/ml. L-lysine ethyl ester dihydrochloride was dissolved in PBS to yield a concentration of 80 mg/ml. Poly-L-lysine (1-4 kDa and 15-30 kDa) were used as hydrochloride salts at concentration of 25 mg/ml and 10 mg/ml, respectively.
Animals were injected with the lysine and/or poly-lysine solutions intraperitoneally in amounts and at frequencies as shown below. Human patients were infused intravenously over a three-hour period with 1.5 liters of a commercially available amino acid solution starting 15 min before the antibody injection. The data of a total of 77 patients examined with ^99mTc-labeled anti-CEA Fab′ (NP-4: n=19; F023C5: n=58) were taken as controls (infused with the same volume of 0.9% saline instead of the amino acid solution).
To attempt to reduce the necessity of frequent injections of the kidney uptake reducing agent, polymeric substances of higher molecular weight were investigated.
To reach maximal effectiveness with as few injections as possible, combinations of lysine and poly-lysine were tested.

mice [2] = test: Kidney uptake of 111In- and 88Y-labeled F(ab)2 fragments of MN-14; format: in vivo; settings: up to 24 h p.i.; no lysine
From the text: (§1) After cervical dislocation, the animals were dissected.

[3] = tested on: GW39 colonic cancer xenograft bearing nude mice; test: Biodistribution of anti-CEA 99mTc-Fab′ NP-4 under L-lysine / poly-L-lysine treatment; format: in vivo; settings: poly-L-lys 0.15 mg/g i.v. at −30′
From the text: as §1

[4] = poly-L-lysine administered twice (30′ before and 1 h after antibody), first treated column, dose and size not given
[5] = poly-L-lysine administered twice (30′ before and 1 h after antibody), second treated column, dose and size not given
[6] = 1-4 kD, 100 μg/g once 30′ before antibody
[7] = 1-4 kD, 200 μg/g once 30′ before antibody
[8] = 1-4 kD, 300 μg/g once 30′ before antibody

Substance: poly-L-lysine
- Kidney uptake of 99mTc-Fab′ NP-4 (mice [1]; [4]): 43.7 ± 10.0
- Kidney uptake, % control (mice [1]; [4]): 59.9 % control
- Kidney uptake of 99mTc-Fab′ NP-4 (mice [1]; [5]): 41.6 ± 8.8
- Kidney uptake, % control (mice [1]; [5]): 56.9 % control

Substance: Y labeled F(ab)2: 88Y-Bz-DTPA-labeled F(ab)2 fragment of the anti-CEA antibody MN-14
- highest value of kidney uptake (mice [2]): about 43 % of the injected dose/g

Substance: Poly-L-lysine [poly-L-lysine (1-4 kD)]
- Blood level of 99mTc-Fab′ NP-4 ([3]; 4 h p.i.): 1.7 ± 0.2
- GW39 uptake of 99mTc-Fab′ NP-4 ([3]; 4 h p.i.): 3.0 ± 1.0
- Kidney uptake of 99mTc-Fab′ NP-4 ([3]; 4 h p.i.): 30.8 ± 6.0
- Kidney uptake, % of contr. ([3]; 4 h p.i.): 52.2 % of contr.
- Liver uptake of 99mTc-Fab′ NP-4 ([3]; 4 h p.i.): 1.5 ± 0.2
- Lung uptake of 99mTc-Fab′ NP-4 ([3]; 4 h p.i.): 3.1 ± 1.2
- Spleen uptake of 99mTc-Fab′ NP-4 ([3]; 4 h p.i.): 1.0 ± 0.1
- Blood level of 99mTc-Fab′ NP-4 ([3]; 24 h p.i.): 0.3 ± 0.0
- GW39 uptake of 99mTc-Fab′ NP-4 ([3]; 24 h p.i.): 2.2 ± 0.3
- Kidney uptake of 99mTc-Fab′ NP-4 ([3]; 24 h p.i.): 25.3 ± 5.7
- Kidney uptake, % of contr. ([3]; 24 h p.i.): 94.7 % of contr.
- Liver uptake of 99mTc-Fab′ NP-4 ([3]; 24 h p.i.): 0.9 ± 0.1
- Lung uptake of 99mTc-Fab′ NP-4 ([3]; 24 h p.i.): 0.8 ± 0.6
- Spleen uptake of 99mTc-Fab′ NP-4 ([3]; 24 h p.i.): 0.7 ± 0.1
- Blood level of 99mTc-Fab′ NP-4 (mice [1]; [6]): 3.8 ± 0.1
- Kidney uptake of 99mTc-Fab′ NP-4 (mice [1]; [6]): 95.5 ± 4.3
- Kidney uptake, % control (mice [1]; [6]): 74.8 % control
- Liver uptake of 99mTc-Fab′ NP-4 (mice [1]; [6]): 3.0 ± 0.2
- Lungs uptake of 99mTc-Fab′ NP-4 (mice [1]; [6]): 5.9 ± 3.1
- Spleen uptake of 99mTc-Fab′ NP-4 (mice [1]; [6]): 3.0 ± 0.4
- Blood level of 99mTc-Fab′ NP-4 (mice [1]; [7]): 4.4 ± 0.5
- Kidney uptake of 99mTc-Fab′ NP-4 (mice [1]; [7]): 80.5 ± 6.9
- Kidney uptake, % control (mice [1]; [7]): 63.0 % control
- Liver uptake of 99mTc-Fab′ NP-4 (mice [1]; [7]): 3.0 ± 0.4
- Lungs uptake of 99mTc-Fab′ NP-4 (mice [1]; [7]): 3.9 ± 2.6
- Spleen uptake of 99mTc-Fab′ NP-4 (mice [1]; [7]): 2.7 ± 0.4
- Blood level of 99mTc-Fab′ NP-4 (mice [1]; [8]): 5.3 ± 1.4
- Kidney uptake of 99mTc-Fab′ NP-4 (mice [1]; [8]): 67.9 ± 7.5
- Kidney uptake, % control (mice [1]; [8]): 53.2 % control
- Liver uptake of 99mTc-Fab′ NP-4 (mice [1]; [8]): 3.5 ± 0.8
- Lungs uptake of 99mTc-Fab′ NP-4 (mice [1]; [8]): 5.6 ± 1.0
- Spleen uptake of 99mTc-Fab′ NP-4 (mice [1]; [8]): 3.5 ± 0.4
- kidney uptake reduction compared with the monomer (mice [1]; single i.p. injection): significantly lower doses than the monomer
